Reference: patent publication US20200405868A1, “GEL-FORMING POLYPEPTIDES” (priority 2018, published 2020)
Entries after “also recorded” stand apart in the source; their conditions may differ. *1 amine or outer side, *2 acyl side, *3 side chain or, on linkers, in order; H or OH if unused. Where a SMILES comes first, the peptide text is derived from it. Where no end group is shown, it is not given here. [ ]: non-standard residue; d: D form. The star is where a group is joined. FITC = O=C1OC2(c3ccc(O)cc3Oc3cc(O)ccc32)c2ccc(NC(=S)*)cc21; K(Pal) = CCCCCCCCCCCCCCCC(=O)NCCCC[C@H](N[*:1])C(=O)[*:2]; d2Nal = N[C@H](Cc1ccc2ccccc2c1)C(=O)O

Experiment: Compound gel-forming ability in water (visual inspection, tube tapping assay, tilted tube assay);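 note: peptides mixed with de-ionized water at about 22-25 °C, judged after 20 min by eye plus tube tapping (10 taps, moves counted) and 90° tilt mobility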
Format: physicochemical
Conditions: for gel formation at 6% w/w: 6% w/w in water; for gel formation at 11% w/w: 11% w/w in water; for Physical property at 11% w/w: 11% w/w in aqueous solution, room temperature; for gel formation in aqueous solution, 11% / gel formation in aqueous solution, 20% / gel formation in aqueous solution, 6%: Table 3; for gel formation in aqueous solution, 11% / propensity to form gels, wild-type counterparts, 11%: 11% w/w; for gel formation in aqueous solution, 20% / propensity to form gels, wild-type counterparts, 20%: 20% w/w; for propensity to form gels, wild-type counterparts, 6% / gel formation in aqueous solution, 6%: 6% w/w; for gel formation at the selected concentration: selected concentration (i.e., at 30%, 20%, 11%, or 6% w/w); for gel formation at 20% w/w: 20% w/w in water

Compound	Physical property at 11% w/w (Table 1)	gel formation at 11% w/w	gel formation in aqueous solution, 11%	propensity to form gels, wild-type counterparts, 6% (Table 5)	propensity to form gels, wild-type counterparts, 11% (Table 5)	other results
CC[C@H](C)[C@H](NC(=O)[C@@H]1CCCN1C(=O)CNC(=O)[C@H](Cc1ccccc1)NC(=O)[C@H](CC(N)=O)NC(=O)[C@H](CC(N)=O)NC(=O)[C@H](CO)NC(=O)[C@H](CO)NC(=O)[C@H](Cc1c[nH]cn1)NC(=O)[C@@H](NC(=O)[C@H](CC(C)C)NC(=O)[C@H](Cc1ccccc1)NC(=O)[C@H](CC(N)=O)NC(=O)[C@H](C)NC(=O)[C@H](CC(C)C)NC(=O)[C@H](CCCNC(=N)N)NC(=O)[C@H](CCC(N)=O)NC(=O)[C@@H](NC(=O)[C@H](C)NC(=O)[C@@H]1CSSC[C@H](NC(=O)[C@@H](N)CCCCN)C(=O)N[C@@H](CC(N)=O)C(=O)N[C@@H]([C@@H](C)O)C(=O)N[C@@H](C)C(=O)N[C@@H]([C@@H](C)O)C(=O)N1)[C@@H](C)O)C(C)C)C(=O)N[C@@H](CC(C)C)C(=O)N1CCC[C@H]1C(=O)N1CCC[C@H]1C(=O)N[C@H](C(=O)N[C@@H](CC(N)=O)C(=O)N[C@H](C(=O)NCC(=O)N[C@@H](CO)C(=O)N[C@@H](CC(N)=O)C(=O)N[C@H](C(=O)N[C@@H](Cc1ccc(O)cc1)C(N)=O)[C@@H](C)O)C(C)C)[C@@H](C)O [SEQ ID NO:4, reference compound]	SS (SS for semisolid gel)	semisolid gel	AS/IS (AS/IS for aqueous solution or insoluble)	AS/IS	SS (An ability to form semisolid gel is represented by an SS)	gel formation at 6% w/w: does not form gel; gel formation in aqueous solution, 20%: SS (SS for semisolid gel)
NC(=O)CC[C@@H]1NC(=O)[C@H](Cc2ccccc2)NC(=O)[C@H](Cc2ccc(O)cc2)NC(=O)[C@@H](N)CSSC[C@@H](C(=O)N2CCC[C@H]2C(=O)N[C@@H](CCCN=C(N)N)C(=O)NCC(N)=O)NC(=O)[C@H](CC(N)=O)NC1=O [SEQ ID NO:17, reference compound]	AS/IS	does not form gel	AS/IS (AS/IS for aqueous solution or insoluble)		AS/IS	
(D-Tyr)QWAV(β-Ala)HF(Nle)-NH2 [SEQ ID NO:20, reference compound]	AS/IS	does not form gel	AS/IS (AS/IS for aqueous solution or insoluble)	AS/IS	AS/IS	gel formation at 6% w/w: does not form gel; gel formation in aqueous solution, 6%: AS/IS (AS/IS for aqueous solution or insoluble)
(G1p)HWSY-(D-2Nal)-LRPG-NH2 [SEQ ID NO:15, reference compound]		liquid gel		AS/IS		gel formation in aqueous solution, 6%: AS/IS (AS/IS for aqueous solution or insoluble)
(G1p)RPRLSHKGP(Nle)PF-K(Pal)HSY-NH2 [SEQ ID NO:262]		liquid gel				gel formation at 20% w/w: liquid gel; propensity to form gels, chimeric or mutated polypeptides, 3% (Table 5, 3% w/w): AS/IS
(G1p)RPRLSHKGP(Nle)PF-miniPEG-K(Pal)VQKLSAPVDPSSPHSY-NH2 [SEQ ID NO:206]		liquid gel				gel formation at 20% w/w: liquid gel
(Glp)RPRLSHKGP(Nle)PF-NH2 (pyroGlu; Nle; C-terminal amide) [SEQ ID NO:18, reference compound]	AS/IS	does not form gel	AS/IS (AS/IS for aqueous solution or insoluble)	AS/IS	AS/IS	gel formation at 6% w/w: does not form gel; gel formation at 20% w/w: does not form gel; gel formation in aqueous solution, 6%: AS/IS (AS/IS for aqueous solution or insoluble); gel formation in aqueous solution, 20%: AS/IS (AS/IS for aqueous solution or insoluble); propensity to form gels, wild-type counterparts, 20% (Table 5): AS/IS; gel formation at the selected concentration: only form aqueous solution or are insoluble
(Lauric acid)-SSPHSY-NH2 [SEQ ID NO:122]						Physical property at 11% w/w (Table 2): SS (SS for semisolid gel)
(Myristic acid)-SSPHSY-NH2 [SEQ ID NO:123]						Physical property at 11% w/w (Table 2): SS (SS for semisolid gel)
Ace-FKFEFKFE-NH2 [SEQ ID NO:141, reference compound]						Physical property at 11% w/w (Table 2): SS (SS for semisolid gel)
Ace-K(PAL)FGCRFGTCTVQKLAHQIYQFTDKDKDNVAPRSKISPQGY-NH2 [SEQ ID NO:1]		liquid gel		AS/IS		gel formation in aqueous solution, 6%: AS/IS (AS/IS for aqueous solution or insoluble); propensity to form gels, wild-type counterparts, 3% (Table 5, 3% w/w): AS/IS
Ace-KVQKLSAPVDPSSPHSY-NH2 [SEQ ID NO:115]						Physical property at 11% w/w (Table 2): AS/IS (AS/IS for aqueous solution or insoluble)
Ace-NFVPTNVGPFAF-NH2 (Ac-NFVPTNVGPFAF-NH2) [SEQ ID NO:134]						Physical property at 11% w/w (Table 2): AS/IS (AS/IS for aqueous solution or insoluble)
Ace-RADARADARADARADA-NH2 [SEQ ID NO:142, reference compound]						Physical property at 11% w/w (Table 2): SS (SS for semisolid gel)
Ace-TVQKLAHQIYQFTDKDKDNVAPRSKISPQGY-NH2 [SEQ ID NO:101]						Physical property at 11% w/w (Table 2): AS/IS (AS/IS for aqueous solution or insoluble)
CSNLSTCVLGKLSQELHKLQTYPRTNTGSGTP-NH2 [SEQ ID NO:28, reference compound]	AS/IS	does not form gel			AS/IS	gel formation in aqueous solution, 20%: AS/IS (AS/IS for aqueous solution or insoluble)
DRVYIHPF-NH2 [SEQ ID NO:16, reference compound]	AS/IS					
EAYKAAEKAYAAKEAAKEAAKAKAEKKAAYAKAKAAKYEKKAKKAAAEYKKK [SEQ ID NO:42, reference compound]	AS/IS	does not form gel	AS/IS (AS/IS for aqueous solution or insoluble)		AS/IS	gel formation at 20% w/w: does not form gel; gel formation in aqueous solution, 20%: AS/IS (AS/IS for aqueous solution or insoluble); propensity to form gels, wild-type counterparts, 20% (Table 5): AS/IS
FITC-K(Pal)SSPHSY-miniPEG-GRKKRRQRRRPQ ({FITC-K(Pal)-Ser-Ser-Pro-H2N-Ser-Tyr-miniPEG}-GRKKRRQRRRPQ) [SEQ ID NO:241]		liquid gel				

Continued, in another order:

Physical property at 11% w/w (Table 1)	Compound	gel formation at 11% w/w	gel formation in aqueous solution, 11%	propensity to form gels, wild-type counterparts, 6% (Table 5)	propensity to form gels, wild-type counterparts, 11% (Table 5)	other results
SS (SS for semisolid gel)	CC[C@H](C)[C@@H]1NC(=O)[C@H](Cc2ccc(O)cc2)NC(=O)[C@@H](N)CSSC[C@@H](C(=O)N2CCC[C@H]2C(=O)N[C@@H](CC(C)C)C(=O)NCC(N)=O)NC(=O)[C@H](CC(N)=O)NC(=O)[C@H](CCC(N)=O)NC1=O [SEQ ID NO:5, reference compound]	semisolid gel	SS (SS for semisolid gel)	AS/IS	SS (An ability to form semisolid gel is represented by an SS)	gel formation at 6% w/w: does not form liquid or semisolid gel; gel formation in aqueous solution, 6%: AS/IS (AS/IS for aqueous solution or insoluble); gel formation at the selected concentration: only form aqueous solution or are insoluble
SS (SS for semisolid gel)	C[C@H](NC(=O)[C@@H](Cc1ccc2ccccc2c1)NC(=O)[C@@H](C)N)C(=O)N[C@@H](Cc1c[nH]c2ccccc12)C(=O)N[C@H](Cc1ccccc1)C(=O)N[C@@H](CCCCN)C(N)=O [SEQ ID NO:8, (D-Ala)-(D-(β-naphthyl))-AAW-(D-Phe)-Lys-NH2, reference compound] (H-[dA][d2Nal]AW[dF]K-NH2)	form self-assembling gels; also recorded: semisolid gel	SS (SS for semisolid gel)	SS (An ability to form semisolid gel is represented by an SS)	SS (An ability to form semisolid gel is represented by an SS)	gel formation at 3% w/w (3% w/w in water): liquid gel; gel formation at 6% w/w: semisolid gel; gel formation in aqueous solution, 6%: SS (SS for semisolid gel)
SS (SS for semisolid gel)	CC[C@H](C)[C@H](N)C(=O)N[C@H]1CSSC[C@@H](C(=O)N[C@H](C(N)=O)[C@@H](C)O)NC(=O)[C@H](CCCN=C(N)N)NC(=O)[C@H](Cc2cnc[nH]2)NC(=O)[C@H](Cc2cnc[nH]2)NC(=O)CNC(=O)[C@H](Cc2c[nH]c3ccccc23)NC(=O)[C@H](CC(=O)O)NC(=O)[C@H](CCC(N)=O)NC(=O)[C@H](C(C)C)NC(=O)[C@H](C(C)C)NC1=O [SEQ ID NO:11, reference compound]	form self-assembling gels; also recorded: semisolid gel	SS (SS for semisolid gel)		SS (An ability to form semisolid gel is represented by an SS)	
AS/IS	(D-Nal)-(D-Cpa)-(D-Pal)-SY-(D-Cit)-LRP-(D-Ala)-NH2 [SEQ ID NO:27, reference compound]		AS/IS (AS/IS for aqueous solution or insoluble)		AS/IS	
SS (SS for semisolid gel)	(D-Phe)-QWAVGHL-(4-CI)Phe-NH2 [SEQ ID NO:61, reference compound]	form self-assembling gels	SS (SS for semisolid gel)	SS (An ability to form semisolid gel is represented by an SS)	SS (An ability to form semisolid gel is represented by an SS)	gel formation in aqueous solution, 6%: SS (SS for semisolid gel)
AS/IS	Ac-EEMQRR-NH2 [SEQ ID NO:47, reference compound]		AS/IS (AS/IS for aqueous solution or insoluble)		AS/IS	
